Measurements: US9757408B2 (Hayashibara Co., Ltd., priority 2010, dated 2017)
Marks after values point to notes of the source that are not given here.

Assays:
[1] = mouse, in vivo
Procedure: The eight mice in each five groups were sensitized (may be simply called “sensitization”, hereinafter) with picryl chloride (Tokyo Chemical Industry Co., Ltd., Tokyo, Japan) in such a manner of dropping a solution, which had been dissolved in a mixture solution of ethanol and acetone in a volume ratio of 4:1 at a concentration of 5%, on the shaved abdominal skin of the mice and on four footpads in a total volume of 150 μL/mouse, and spreading the solution over the abdominal skin and the foot pads by using a micropipette similarly as above.
Throughout the test period, the mice were weighed once a week. The judgement of the conditions of skin inflammation was conducted twice a week every Tuesday and Friday from the 3rd induction for the degrees of four items of red flare/bleeding, edema (swelling of earflap), chafing/loss of tissue, and the formation of scar tissue/drying, and scored based on the criterion of four grades shown in Table 17; “0” (symptomless), “1” (mild), “2” (moderate), and “3” (severe). The total scores of each evaluation items for each group were averaged for use as a skin score.

NHDF cells = assay: Cell survival rate of NHDF cells after hydrogen peroxide oxidant stress (Experiment 18); format: cell-based, human
Procedure: To the wells, which had not been treated with hydrogen peroxide, was added 100 μL/well of Hanks' solution. […] Thereafter, the supernatant in each well was removed by sucking, and “CELL COUNTING KIT-8”, a product name of a reagent solution for counting viable cells, commercialized by Dojindo Molecular Technologies, Inc., Kumamoto, Japan, which had been diluted with D-MEM medium supplemented with 10% FCS by 20-times, was added to the wells in an amount of 100 μL/well, followed by incubating the cells in a 5% v/v CO2 incubator at 37° C. for two hours. Finally, the microplates were measured for absorbance at a wavelength of 450 nm on a plate reader. For each well, a relative absorption value was determined when the absorbance of a well of NHDF cells, which had been cultured by the addition of only medium, was regarded as 100, and it is expressed as a cell survival rate (%) in Table 21.

BALB/c mice = assay: Safeness of injection preparations, i.v. once a day for seven days (Example 2); format: in vivo; details: mouse, in vivo, iv
Procedure: The safeness of the preparations prepared in the above was evaluated.

[2] = system: mice with bacterial shock induced by LPS; assay: LPS bacterial shock mice, survival, ANO i.v. one hour after LPS (Experiment 8); format: in vivo, BALB/c mice; details: LPS 18 mg/kg i.p., ANO 135 mg/kg i.v. at one hour after LPS
Procedure: An LPS specimen derived from E. coli ([…]), commercialized by Sigma-Aldrich Corporation, St. Louis, Mo. USA, was dissolved in PBS and intraperitoneally administered to all the seven mice in each group at a dose of 18 mg/kg body weight of LPS. […] For each group, the survival number of mice was confirmed up to 7 to 27 hours after administering LPS and determined the survival rate (%) of mice in each group.

[3] = system: IL-10 in serum of mice administered with LPS; assay: Serum IL-10 in LPS-administered mice, ANO i.v. (Experiment 7); format: in vivo, BALB/c mice; details: LPS 18 mg/kg i.p., serum two hours after LPS
Procedure: More specifically, 18 BALB/c female mice, 9-week-old, commercialized by Japan Charles River, Tokyo, Japan, were randomly divided into three groups, six heads each. An LPS specimen derived from E. coli (055:B5), commercialized by Sigma-Aldrich Corporation, St. Louis, Mo. USA, was dissolved in physiological saline and intraperitoneally administered to all the 6 mice in respective three groups at a dose of 18 mg/kg body weight of LPS (Experiment groups 1 to 3). […] To the six mice of the remaining one group was intravenously administered PBS in a liquid volume of 0.2 mL/head simultaneously with the administration of LPS (Experiment group 1).
For the mice in each group, they were collected blood at two hours after the LPS administration, followed by assaying the level of TNF-α, IL-6, IL-10, and IL-12 in each serum and averaging the data for each group. For the assay of the level of TNF-α, the same ELISA as in Experiment 2 was used and for the assay of the level of IL-6, the same ELISA as in Experiment 3 was used. […]

[4] = system: TNF-α production from THP-1 cells; adenosine receptors A1R, A2AR, A2BR, A3R; assay: TNF-α production from THP-1 cells, LPS + IFN-γ, ANO with adenosine receptor antagonists (Experiment 5); format: cell-based; details: LPS + human IFN-γ, ANO 5 μM
Excerpt: USA; ZM241385, commercialized by Tocris Bioscience, MSY USA; MRS1754, commercialized by Sigma-Aldrich Corporation, St. Louis, Mo. […] The results are in Table 5 in parallel.

Nc1ncnc2c1ncn2[C@@H]1O[C@H](CO)[C@@H](O)[C@H]1O [AN, adenosine]
body weight of mice applied with the gel [1]: reduction of increasing rate of their body weights

Nc1c2ncn([C@@H]3O[C@H](CO)[C@@H](O)[C@H]3O)c2nc[n+]1[O-] [ANO, adenosine N1-oxide]
Cell survival rate (NHDF cells; addition of hydrogen peroxide: No, 3.12 μM): 100%
Cell survival rate (NHDF cells; addition of hydrogen peroxide: No, 6.25 μM): 100%
Cell survival rate (NHDF cells; addition of hydrogen peroxide: No, 12.5 μM): 100%
Cell survival rate (NHDF cells; addition of hydrogen peroxide: No, 25.0 μM): 100%
Cell survival rate (NHDF cells; addition of hydrogen peroxide: Yes, 3.1 μM): 35%
Cell survival rate (NHDF cells; addition of hydrogen peroxide: Yes, 6.3 μM): 81%
Cell survival rate (NHDF cells; addition of hydrogen peroxide: Yes, 12.5 μM): 83%
Cell survival rate (NHDF cells; addition of hydrogen peroxide: Yes, 25.0 μM): 89%
influence on the cell survival rate without hydrogen peroxide (NHDF cells; concentrations used in this experiment (Experiment groups 7 to 10)): No influence
Cell survival rate (NHDF cells; hydrogen peroxide 200 μM, then ANO 25 μM for 24 hours, medium only = 100): 89%
change in body weight and other appearance versus PBS (BALB/c mice): no significant change
clinical laboratory test results that provide indices of renal and liver functions versus PBS (BALB/c mice): no difference
Survival rate (%) of mice, 7 Hours ([2]; 7 hours): 100%
Survival rate (%) of mice, 22 Hours ([2]; 22 hours): 86%
Survival rate (%) of mice, 27 Hours ([2]; 27 hours): 57%
IL-10 Concentration ([3]; ANO 68 mg/kg i.v.): 14.1 ng/mL
IL-10 Concentration ([3]; ANO 135 mg/kg i.v.): 19.3 ng/mL
TNF-α Concentration ([4]; no antagonist): 97 pg/mL
TNF-α Concentration ([4]; pretreated with DPCPX 0.5 μM): 132** pg/mL
TNF-α Concentration ([4]; pretreated with DPCPX 1 μM): 130** pg/mL
TNF-α Concentration ([4]; pretreated with DPCPX 5 μM): 129** pg/mL
TNF-α Concentration ([4]; pretreated with DPCPX 10 μM): 133** pg/mL
TNF-α Concentration ([4]; pretreated with MRS1220 0.5 μM): 105** pg/mL
TNF-α Concentration ([4]; pretreated with MRS1220 1 μM): 105** pg/mL
TNF-α Concentration ([4]; pretreated with MRS1220 5 μM): 105** pg/mL
TNF-α Concentration ([4]; pretreated with MRS1220 10 μM): 102** pg/mL
TNF-α Concentration ([4]; pretreated with MRS1754 0.5 μM): 118** pg/mL
TNF-α Concentration ([4]; pretreated with MRS1754 1 μM): 121** pg/mL
TNF-α Concentration ([4]; pretreated with MRS1754 5 μM): 121** pg/mL
TNF-α Concentration ([4]; pretreated with MRS1754 10 μM): 103* pg/mL
TNF-α Concentration ([4]; pretreated with ZM241385 0.5 μM): 135** pg/mL
TNF-α Concentration ([4]; pretreated with ZM241385 1 μM): 137** pg/mL
TNF-α Concentration ([4]; pretreated with ZM241385 5 μM): 135** pg/mL
TNF-α Concentration ([4]; pretreated with ZM241385 10 μM): 132** pg/mL
